US9926319B2, “Pyridyl piperidines” (MERCK PATENT GMBH, priority 2014, dated 2018)

What was measured:
Wnt pathway = experiment: Cellular assay for Wnt pathway activity (luciferase reporter cell based assay); settings: 24 h, HEK293 luciferase reporter cell line (ER-DSH, TCF dependent promoter), induced with estrogen (1 μM), read-out: 7df3 IC50
[1] = CLint (intrinsic clearance) assay, microsomal incubation; format: in vitro ADME, Human; settings: human, liver microsomes, pH 7.4, human liver microsomes 0.5 mg/mL protein, NADPH, 37° C., up to 30 min
Experimental: 2. CLint (Intrinsic Clearance) Assay
A Tecan Genesis workstation (RWS ASY 150/8) was used to perform the microsomal incubations. Analysis was carried out using a Waters ACQUITY UPLC system coupled to an ABSciex API3000 mass spectrometer. Data analysis was performed using Assay Explorer (Symyx).
0.1 M potassium phosphate buffer pH 7.4 containing 1 mM MgCl2
15 mM NADPH in phosphate buffer
5.0 mg protein/mL liver microsomes in phosphate buffer
Each experiment consists of 12 test and 2 reference compounds. The reference compounds are incubated as a cocktail.
Dilution of test compounds was done in 2 steps from a 10 mM DMSO stock solution. First 4 μL stock solution was added to 196 μL of 20% DMSO in potassium phosphate buffer pH 7.4. In a second step 10 μL of the first dilution were added to […] potassium phosphate buffer and 100 μL internal standard solution to a final concentration of 0.8 μM. 100 μL of the final compound dilution were aliquoted into a 96 deep well plate. 12.5 μL liver microsomes were added to each well (0.5 mg/mL final protein concentration) and the samples preincubated for 5 min at 37° C. and 800 rpm agitation.
After the preincubation, 250 μL cold acetonitrile were added to the 0 min samples to prevent a reaction. Following this, 12.5 μL NADPH solution were added to all wells to start the incubation, with the exception of the 0 min and 30 min controls without cofactor, where the NADPH was substituted for phosphate buffer.
The incubations were stopped after 5, 10, 20 and 30 min by adding 250 μL cold acetonitrile to the individual wells.
The quenched samples were then centrifuged at 4000 g for 1 h at 4° C. 100 μL of the supernatant were transferred into 96 well plates for analysis.
The metabolic stability of each compound was determined by measurement of the change in LC-MS/MS peak area over time. Assay Explorer software was used to automatically calculate the slope k of the decline. The intrinsic clearance (CLint) of each compound was then calculated according to the formula: CLint(μL/min/mg protein)=k1000/protein concentration.
CLint is shown for each compound in Table 3 below.

Structure (SMILES) | IC50 (Wnt pathway) | microsomal CLint at 0.8 μM [1]
Cn1cc(-c2ccc(-c3cncc(Cl)c3N3CCC(F)(C(N)=O)CC3)cc2)cn1 [Example 25, 5′-Chloro-4-fluoro-3′-[4-(1-methyl-1H-pyrazol-4-yl)-phenyl]-3,4,5,6-tetrahydro-2H-[1,4′]bipyridinyl-4-carboxylic acid amide] | 7 nM | 23 µL/min/mg
CC(C)(C)N1Cc2cc(-c3cncc(Cl)c3N3CCC4(CCNC4=O)CC3)ccc2S1(=O)=O [Example 26, 8-[3-(2-tert-Butyl-1,1-dioxo-2,3-dihydro-1H-1l6-benzo[d]isothiazol-5-yl)-5-chloro-pyridin-4-yl]-2,8-diaza-spiro[4.5]decan-1-one] | 20 nM | 30 µL/min/mg
Cn1nc(N)c2ccc(-c3cncc(Cl)c3N3CCC4(CC3)CNC(=O)O4)cc21 [Example 27, 8-[3-(3-Amino-1-methyl-1H-indazol-6-yl)-5-chloro-pyridin-4-yl]-1-oxa-3,8-diaza-spiro[4.5]decan-2-one] | 2 nM | 58 µL/min/mg
Cn1nc(N)c2ccc(-c3cncc(Cl)c3N3CCC4(CC3)CC(=O)NC4=O)cc21 [Example 28, 8-[3-(3-Amino-1-methyl-1H-indazol-6-yl)-5-chloro-pyridin-4-yl]-2,8-diaza-spiro[4.5]decane-1,3-dione] | 1.3 nM | 60 µL/min/mg
O=C1NCCC12CCN(c1c(Cl)cncc1-c1ccc3c(c1)C(O)CS3(=O)=O)CC2 (stereo not drawn) [Example 29, 8-[3-Chloro-5-(3-hydroxy-1,1-dioxo-2,3-dihydro-1H-1l6-benzo[b]thiophen-5-yl)-pyridin-4-yl]-2,8-diaza-spiro[4.5]decan-1-one] | 16 nM | 12 µL/min/mg
CN1c2ccc(-c3cncc(Cl)c3N3CCC4(CC3)CC(=O)NN4)cc2CS1(=O)=O [Example 30, 8-[3-Chloro-5-(1-methyl-2,2-dioxo-2,3-dihydro-1H-2l6-benzo[c]isothiazol-5-yl)-pyridin-4-yl]-1,2,8-triaza-spiro[4.5]decan-3-one] | 13 nM | 27 µL/min/mg
CN1c2ccc(-c3cncc(Cl)c3N3CCC(F)(C(N)=O)CC3)cc2CS1(=O)=O [Example 31, 5′-Chloro-4-fluoro-3′-(1-methyl-2,2-dioxo-2,3-dihydro-1H-2l6-benzo[c]isothiazol-5-yl)-3,4,5,6-tetrahydro-2H-[1,4′]bipyridinyl-4-carboxylic acid amide] | 2.8 nM | 51 µL/min/mg
O=C1NCCC12CCN(c1c(Cl)cncc1-c1ccc3c(c1)CS(=O)(=O)C3)CC2 [Example 32, 8-[3-Chloro-5-(2,2-dioxo-2,3-dihydro-1H-2l6-benzo[c]thiophen-5-yl)-pyridin-4-yl]-2,8-diaza-spiro[4.5]decan-1-one] | 4.7 nM | 70 µL/min/mg
CN1c2ccc(-c3cncc(Cl)c3N3CCC(C#N)(CCO)CC3)cc2CS1(=O)=O [Example 33, 5′-Chloro-4-(2-hydroxy-ethyl)-3′-(1-methyl-2,2-dioxo-2,3-dihydro-1H-2l6-benzo[c]isothiazol-5-yl)-3,4,5,6-tetrahydro-2H-[1,4′]bipyridinyl-4-carbonitrile] | 0.6 nM | 88 µL/min/mg
CC(C)n1cc(-c2ccc(-c3cncc(Cl)c3N3CCC4(CC3)CNC(=O)O4)cc2)cn1 [Example 36, 8-{3-Chloro-5-[4-(1-isopropyl-1H-pyrazol-4-yl)-phenyl]-pyridin-4-yl}-1-oxa-3,8-diaza-spiro[4.5]decan-2-one] | 22 nM | 40 µL/min/mg
CC(C)n1cc(-c2ccc(-c3cncc(C(F)(F)F)c3N3CCC4(CC3)CNC(=O)O4)cc2)cn1 [Example 38, 8-{3-[4-(1-Isopropyl-1H-pyrazol-4-yl)-phenyl]-5-trifluoromethyl-pyridin-4-yl}-1-oxa-3,8-diaza-spiro[4.5]decan-2-one] | 33 nM | 16 µL/min/mg
CS(=O)(=O)CCn1cc(-c2ccc(-c3cncc(Cl)c3N3CCC4(CC3)CNC(=O)O4)cc2)cn1 [Example 39, 8-(3-Chloro-5-{4-[1-(2-methanesulfonyl-ethyl)-1H-pyrazol-4-yl]-phenyl}-pyridin-4-yl)-1-oxa-3,8-diaza-spiro[4.5]decan-2-one] | 14 nM | 12 µL/min/mg
N#CCCn1cc(-c2ccc(-c3cncc(Cl)c3N3CCC4(CC3)CNC(=O)O4)cc2)cn1 [Example 40, 3-(4-{4-[5-Chloro-4-(2-oxo-1-oxa-3,8-diaza-spiro[4.5]dec-8-yl)-pyridin-3-yl]-phenyl}-pyrazol-1-yl)-propionitrile] | 3.9 nM | 61 µL/min/mg
CN1c2ccc(-c3cncc(Cl)c3N3CCC4(CC3)C[C@@H](C(F)(F)F)NC4=O)cc2CS1(=O)=O [Example 42, (S)-8-[3-Chloro-5-(1-methyl-2,2-dioxo-2,3-dihydro-1H-2l6-benzo[c]isothiazol-5-yl)-pyridin-4-yl]-3-trifluoromethyl-2,8-diaza-spiro[4.5]decan-1-one] | 2.4 nM | 57 µL/min/mg
CC(C)(O)Cn1cc(-c2ccc(-c3cncc(Cl)c3N3CCC4(CC3)CNC(=O)O4)cc2)cn1 [Example 43, 8-(3-Chloro-5-{4-[1-(2-hydroxy-2-methyl-propyl)-1H-pyrazol-4-yl]-phenyl}-pyridin-4-yl)-1-oxa-3,8-diaza-spiro[4.5]decan-2-one] | 50 nM | 11 µL/min/mg
CN1c2ccc(-c3cncc(Cl)c3N3CCC(N)(C(N)=O)CC3)cc2CS1(=O)=O [Example 44, 4-Amino-5′-chloro-3′-(1-methyl-2,2-dioxo-2,3-dihydro-1H-2l6-benzo[c]isothiazol-5-yl)-3,4,5,6-tetrahydro-2H-[1,4′]bipyridinyl-4-carboxylic acid amide] | 5.1 nM | < 10 µL/min/mg
O=C1NCC2(CCN(c3c(Cl)cncc3-c3ccc4c(c3)CS(=O)(=O)C4)CC2)O1 [Example 48, 8-[3-Chloro-5-(2,2-dioxo-2,3-dihydro-1H-2l6-benzo[c]thiophen-5-yl)-pyridin-4-yl]-1-oxa-3,8-diaza-spiro[4.5]decan-2-one] | 42 nM | 23 µL/min/mg
O=C1NCC2(CCN(c3c(Cl)cncc3-c3ccc4cnccc4c3)CC2)O1 [Example 50, 8-(3-Chloro-5-isoquinolin-6-yl-pyridin-4-yl)-1-oxa-3,8-diaza-spiro[4.5]decan-2-one] | 23 nM | 28 µL/min/mg
CCC1=NNC(=O)C12CCN(c1c(Cl)cncc1-c1ccc3c(c1)CS(=O)(=O)N3C)CC2 [Example 52, 8-[3-Chloro-5-(1-methyl-2,2-dioxo-2,3-dihydro-1H-2l6-benzo[c]isothiazol-5-yl)-pyridin-4-yl]-4-ethyl-2,3,8-triaza-spiro[4.5]dec-3-en-1-one] | 0.02 nM | 70 µL/min/mg
CN1c2ccc(-c3cncc(Cl)c3N3CCC4(CC3)C[C@H](C(F)(F)F)NC4=O)cc2CS1(=O)=O [Example 53, (R)-8-[3-Chloro-5-(1-methyl-2,2-dioxo-2,3-dihydro-1H-2l6-benzo[c]isothiazol-5-yl)-pyridin-4-yl]-3-trifluoromethyl-2,8-diaza-spiro[4.5]decan-1-one] | 15 nM | 42 µL/min/mg
CCC1=NNC(=O)C12CCN(c1c(Cl)cncc1-c1ccc(-c3cnn(C)c3)cc1)CC2 [Example 54, 8-{3-Chloro-5-[4-(1-methyl-1H-pyrazol-4-yl)-phenyl]-pyridin-4-yl}-4-ethyl-2,3,8-triaza-spiro[4.5]dec-3-en-1-one] | 0.92 nM | 82 µL/min/mg
O=C1NCC2(CCN(c3c(Cl)cncc3-c3ccc(-c4cnn(C5COC5)c4)cc3)CC2)O1 [Example 55, 8-{3-Chloro-5-[4-(1-oxetan-3-yl-1H-pyrazol-4-yl)-phenyl]-pyridin-4-yl}-1-oxa-3,8-diaza-spiro[4.5]decan-2-one] | 20 nM | 23 µL/min/mg
Cn1cc(-c2ccc(-c3cncc(Cl)c3N3CCC4(CC3)C(=O)NN=C4C(F)(F)F)cc2)cn1 [Example 59, 8-{3-Chloro-5-[4-(1-methyl-1H-pyrazol-4-yl)-phenyl]-pyridin-4-yl}-4-trifluoromethyl-2,3,8-triaza-spiro[4.5]dec-3-en-1-one] | 17 nM | 43 µL/min/mg
O=C1NCC2(CCN(c3c(Cl)cncc3-c3ccc(-c4cnn(C5CC5)c4)cc3)CC2)O1 [Example 60, 8-{3-Chloro-5-[4-(1-cyclopropyl-1H-pyrazol-4-yl)-phenyl]-pyridin-4-yl}-1-oxa-3,8-diaza-spiro[4.5]decan-2-one] | 6.1 nM | 23 µL/min/mg
